Experiments:
[1] = target: Tyrosine-protein kinase BTK (Homo sapiens, UniProt Q06187); assay: BTK Kinase Assay
Method: (§1) 1. Reaction conditions: buffer conditions: 20 mM HEPES (pH 7.5), 10 mM MgCl2, 1 mM EGTA, 0.02% Brij35, 0.02 mg/mL BSA, 0.1 mm Na3VO4, 2 mm DTT, 1% DMSO.2. Reaction procedure:2.1. Preparing an indicator substrate in a freshly prepared reaction buffer 2.2. Delivering the desired cofactor to the above substrate solution 2.3. Delivering the indicated kinase to the substrate solution and gently mixing same 2.4. Delivering the compounds in DMSO to the kinase reaction mixture using acoustic technology (Echo550) 2.5. Initiating the reaction (final concentration of ATP: 5 μM) by delivering 33P-ATP (final specific activity: 0.01 μci/μL) to the reaction mixture 2.6. Incubating the kinase reaction at room temperature for 120 minutes 2.7. Recording the reaction on P81 ion exchange paper (Whatman #3698-915) 2.8. Washing the filter widely with 0.75% phosphoric acid 2.9. Measuring the radioactive phosphorylated substrate remaining on the filter paper. 3.Data analysis: the kinase activity data is expressed as the percentage of the remaining kinase activity in a test sample compared to a reaction with a carrier (dimethyl sulfoxide), and IC50 values and curve fitting are obtained using Prism4 software (GraphPad).

[2] = target: Epidermal growth factor receptor (Homo sapiens, UniProt P00533); assay: EGFR, ITK and TEC Kinase Assay
Epidermal growth factor receptor, sequence (P00533 whole entry): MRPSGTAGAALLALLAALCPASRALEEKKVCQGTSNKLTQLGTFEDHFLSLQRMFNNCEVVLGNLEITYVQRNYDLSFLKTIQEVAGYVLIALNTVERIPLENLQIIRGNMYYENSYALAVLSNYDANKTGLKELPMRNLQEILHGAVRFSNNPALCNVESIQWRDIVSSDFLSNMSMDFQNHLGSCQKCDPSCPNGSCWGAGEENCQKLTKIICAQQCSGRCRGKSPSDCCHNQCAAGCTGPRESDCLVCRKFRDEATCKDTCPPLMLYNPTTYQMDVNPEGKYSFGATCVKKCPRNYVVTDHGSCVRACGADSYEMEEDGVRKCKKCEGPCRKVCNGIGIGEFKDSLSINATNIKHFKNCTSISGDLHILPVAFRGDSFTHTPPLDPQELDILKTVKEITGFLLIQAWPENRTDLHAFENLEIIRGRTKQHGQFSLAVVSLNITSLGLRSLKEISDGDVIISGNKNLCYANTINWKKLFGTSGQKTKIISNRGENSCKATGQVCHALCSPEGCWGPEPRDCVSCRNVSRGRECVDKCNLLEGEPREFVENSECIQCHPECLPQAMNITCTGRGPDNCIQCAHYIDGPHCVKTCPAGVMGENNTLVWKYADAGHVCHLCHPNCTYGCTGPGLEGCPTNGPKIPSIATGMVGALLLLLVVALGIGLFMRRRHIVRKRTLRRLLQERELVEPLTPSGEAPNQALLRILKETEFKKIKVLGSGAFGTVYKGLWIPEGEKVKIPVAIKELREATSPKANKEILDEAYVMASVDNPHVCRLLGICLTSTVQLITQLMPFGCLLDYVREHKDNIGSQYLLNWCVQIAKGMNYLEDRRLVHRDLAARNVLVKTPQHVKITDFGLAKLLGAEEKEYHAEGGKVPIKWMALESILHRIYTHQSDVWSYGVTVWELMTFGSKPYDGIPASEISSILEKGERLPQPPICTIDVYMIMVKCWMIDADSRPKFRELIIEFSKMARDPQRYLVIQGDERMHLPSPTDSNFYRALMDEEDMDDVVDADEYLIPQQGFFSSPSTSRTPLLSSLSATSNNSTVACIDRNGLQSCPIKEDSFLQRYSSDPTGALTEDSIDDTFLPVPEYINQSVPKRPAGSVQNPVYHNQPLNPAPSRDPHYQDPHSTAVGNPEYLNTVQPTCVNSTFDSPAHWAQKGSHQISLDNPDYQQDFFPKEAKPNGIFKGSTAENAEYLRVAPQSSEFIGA
Method: as §1, with “DMSO. 2.” for “DMSO.2.”, “ATP: 2 μM,” for “ATP:”, “μM and 5 μM respectively)” for “μM)”, “3. Data” for “3.Data”

[3] = target: T1, Tyrosine-protein kinase ITK/TSK (Homo sapiens, UniProt Q08881)
T1 sequence (Q08881 whole entry): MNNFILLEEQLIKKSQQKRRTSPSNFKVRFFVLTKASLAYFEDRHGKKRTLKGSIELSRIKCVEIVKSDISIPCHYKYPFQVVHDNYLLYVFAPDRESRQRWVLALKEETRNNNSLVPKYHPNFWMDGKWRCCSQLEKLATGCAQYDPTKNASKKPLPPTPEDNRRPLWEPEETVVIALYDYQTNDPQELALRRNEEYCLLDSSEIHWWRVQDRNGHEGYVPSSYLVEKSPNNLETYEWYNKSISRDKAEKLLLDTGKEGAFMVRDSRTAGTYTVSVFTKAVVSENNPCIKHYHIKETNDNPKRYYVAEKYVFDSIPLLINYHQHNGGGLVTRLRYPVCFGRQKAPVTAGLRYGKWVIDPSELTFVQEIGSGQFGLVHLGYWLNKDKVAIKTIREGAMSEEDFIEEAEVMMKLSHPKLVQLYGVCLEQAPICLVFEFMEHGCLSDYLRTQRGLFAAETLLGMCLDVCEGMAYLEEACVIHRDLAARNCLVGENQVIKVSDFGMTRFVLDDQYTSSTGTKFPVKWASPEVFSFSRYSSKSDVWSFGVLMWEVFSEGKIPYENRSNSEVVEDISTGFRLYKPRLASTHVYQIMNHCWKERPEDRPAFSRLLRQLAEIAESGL

[4] = target: T2, Tyrosine-protein kinase Tec (Homo sapiens, UniProt P42680)
T2 sequence (P42680 whole entry): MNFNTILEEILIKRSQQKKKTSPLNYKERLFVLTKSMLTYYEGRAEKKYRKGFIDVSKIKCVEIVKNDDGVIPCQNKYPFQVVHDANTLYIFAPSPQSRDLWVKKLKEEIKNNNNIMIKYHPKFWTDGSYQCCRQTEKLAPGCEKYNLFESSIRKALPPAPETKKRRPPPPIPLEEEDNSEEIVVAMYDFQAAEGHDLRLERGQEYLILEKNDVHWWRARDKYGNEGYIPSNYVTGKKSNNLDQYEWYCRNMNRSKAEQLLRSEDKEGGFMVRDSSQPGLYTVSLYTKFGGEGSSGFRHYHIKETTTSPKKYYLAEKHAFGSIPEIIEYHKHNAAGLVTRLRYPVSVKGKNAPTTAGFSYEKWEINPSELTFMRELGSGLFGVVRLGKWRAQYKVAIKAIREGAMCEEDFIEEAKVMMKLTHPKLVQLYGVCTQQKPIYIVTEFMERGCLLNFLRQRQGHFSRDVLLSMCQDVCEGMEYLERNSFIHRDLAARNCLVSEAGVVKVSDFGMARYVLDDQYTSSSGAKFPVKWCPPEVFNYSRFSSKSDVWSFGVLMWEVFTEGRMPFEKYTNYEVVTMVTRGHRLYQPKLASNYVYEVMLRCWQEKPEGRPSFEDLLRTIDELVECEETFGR

Tyrosine-protein kinase BTK, sequence (Q06187 whole entry): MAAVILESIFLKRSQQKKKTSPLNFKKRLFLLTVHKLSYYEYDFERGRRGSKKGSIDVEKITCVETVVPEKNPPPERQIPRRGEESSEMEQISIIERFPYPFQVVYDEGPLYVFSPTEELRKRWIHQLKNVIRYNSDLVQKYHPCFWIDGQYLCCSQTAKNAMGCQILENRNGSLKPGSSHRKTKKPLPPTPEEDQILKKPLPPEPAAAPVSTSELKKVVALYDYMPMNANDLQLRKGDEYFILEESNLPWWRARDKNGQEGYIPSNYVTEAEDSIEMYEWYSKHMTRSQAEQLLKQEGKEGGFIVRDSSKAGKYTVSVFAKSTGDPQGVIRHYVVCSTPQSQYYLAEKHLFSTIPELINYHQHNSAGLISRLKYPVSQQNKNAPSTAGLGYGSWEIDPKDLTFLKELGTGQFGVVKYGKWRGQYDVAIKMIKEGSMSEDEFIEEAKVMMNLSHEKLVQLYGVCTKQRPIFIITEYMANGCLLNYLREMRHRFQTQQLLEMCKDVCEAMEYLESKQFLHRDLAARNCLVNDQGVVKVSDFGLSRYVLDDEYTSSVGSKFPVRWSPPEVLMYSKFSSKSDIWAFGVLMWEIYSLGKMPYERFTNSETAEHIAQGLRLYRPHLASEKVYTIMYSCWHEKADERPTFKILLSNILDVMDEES

SMILES	IC50 [1]	IC50 [2]	IC50 [3]	IC50 [4]
C=CC(=O)N1CCC[C@@H](c2nn(-c3ccc(Oc4ccccc4)cc3)c3c(N)nccc23)C1 [US11739090, Compound 7A]	0.73 nM	14.5 nM	42.2 nM	3.39 nM
C=CC(=O)N1CCC[C@H](c2nn(-c3ccc(Oc4ccccc4)cc3)c3c(N)nccc23)C1 [US11739090, Compound 7B]	0.93 nM	33.3 nM	1450 nM	3.74 nM

Source: BindingDB's records for patent US11739090 (Jumbo Drug Bank, 2023)
